Tests used:
[1] = test system: immature dendritic cells; experiment: Cytokine production in immature dendritic cells; format: cell-based; conditions: compared to the negative control, MRX518 10^7/ml, LPS 100 ng/ml, FIG. 4
Experimental: A monocyte population was isolated from peripheral blood mononuclear cells (PBMCs). The monocyte cells were subsequently differentiated into immature dendritic cells. The immature dendritic cells were plated out at 200,000 cells/well and incubated with MRX518 at a final concentration of 10^7/ml, with the optional addition of LPS at a final concentration of 100 ng/ml. The negative control involved incubating the cells with RPMI media alone and positive controls incubated the cells with LPS at a final concentration of 100ng/ml. The cytokine content of the cells was then analysed.

[2] = test system: RENCA tumour cells; experiment: Antitumor activity, RENCA model; format: in vivo, mouse; conditions: D18 and D22, compared to untreated and vehicle groups, FIG. 3B
Experimental: Treatment schedule—The start of first dosing was considered as D0. On D0, non-engrafted mice were randomized according to their individual body weight into groups of 9 mice using Vivo manager® software (Biosystemes, Couternon, France). On D0, the mice received vehicle (culture medium) or bacterial strain (2×10^8 in 200 μL, PO). On D14, all mice were engrafted with RENCA tumour cells injected SC into the ventral surface of the lower flank as described below. Treatment with anti-CTLA-4 (10 mg/kg, IP) and anti-PDL1 (clone 10F.9G2, 10 mg/kg) was initiated when tumours reached a volume of 50-70 mm3.
Orthotopic induction of RENCA tumor cells in animals by SC injection—On D14, one million (1×10^6) RENCA tumor cells in 50 ΞL RPMI 1640 medium were transplanted via SC injection into the ventral surface of the lower flank of mice.
Euthanasia - Each mouse was euthanized when it reached a humane endpoint as described in section below, or after a maximum of 6 weeks post start of dosing.
Evaluation of tumour burden at euthanasia—At the time of termination, tumours were collected and their volume evaluated.
Clinical monitoring—The length and width of the tumour was measured twice a week with callipers and the volume of the tumour was estimated by this formula [52]: […]

Row | Compound | level of IL-6 [1] | level of TNF-α [1] | tumour size [2]
1 | lipopolysaccharide [LPS] | increase | increase | 
2 | CC(=O)O[C@H]1C(=O)[C@@]2(C)[C@H]([C@H](OC(=O)c3ccccc3)[C@]3(O)C[C@H](OC(=O)[C@H](O)[C@@H](NC(=O)c4ccccc4)c4ccccc4)C(C)=C1C3(C)C)[C@]1(OC(C)=O)CO[C@@H]1C[C@@H]2O [Paclitaxel] |  |  | (almost) complete reduction

From patent US20240016861A1, “COMBINATION THERAPY FOR TREATING OR PREVENTING CANCER” (4D Pharma Research Limited, priority 2018, published 2024)
